Blank lines part the entries; values can stand above or below the compound they belong to.
Legend:
[1] = target: Tyrosine-protein kinase Fes/Fps (Homo sapiens) (UniProt P07332); assay: Inhibition of human recombinant FES at 500 nM in presence of ATP by radiometric assay relative to control
[2] = target: Tyrosine-protein kinase FRK (Homo sapiens) (UniProt P42685); assay: Inhibition of human recombinant FRK at 500 nM in presence of ATP by radiometric assay relative to control
[3] = target: T1, Homeodomain-interacting protein kinase 4 (Homo sapiens) (UniProt Q8NE63); assay: Inhibition of human recombinant HIPK4 at 500 nM in presence of ATP by radiometric assay relative to control
T1 sequence (whole entry): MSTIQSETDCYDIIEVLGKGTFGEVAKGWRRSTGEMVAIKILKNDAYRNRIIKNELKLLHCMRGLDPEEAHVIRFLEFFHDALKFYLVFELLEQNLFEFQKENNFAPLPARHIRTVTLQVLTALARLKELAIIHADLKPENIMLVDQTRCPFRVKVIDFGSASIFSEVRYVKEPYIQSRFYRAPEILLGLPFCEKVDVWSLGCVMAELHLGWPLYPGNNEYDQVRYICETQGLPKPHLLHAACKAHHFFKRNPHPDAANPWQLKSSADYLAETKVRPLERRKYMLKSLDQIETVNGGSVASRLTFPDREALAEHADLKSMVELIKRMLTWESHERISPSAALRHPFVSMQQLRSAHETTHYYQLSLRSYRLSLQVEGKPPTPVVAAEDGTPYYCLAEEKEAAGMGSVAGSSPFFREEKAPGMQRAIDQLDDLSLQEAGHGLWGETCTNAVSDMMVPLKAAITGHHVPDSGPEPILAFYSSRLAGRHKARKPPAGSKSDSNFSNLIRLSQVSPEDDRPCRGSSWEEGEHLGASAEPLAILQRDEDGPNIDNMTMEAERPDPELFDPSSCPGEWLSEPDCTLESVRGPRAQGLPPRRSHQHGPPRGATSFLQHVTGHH

[4] = target: Tyrosine-protein kinase JAK2 (Homo sapiens) (UniProt O60674); assay: Inhibition of human recombinant JAK2 at 500 nM in presence of ATP by radiometric assay relative to control
[5] = target: Calcium/calmodulin-dependent protein kinase type 1D (Homo sapiens) (UniProt Q8IU85); assay: Inhibition of human recombinant CaMK1d at 500 nM related to control ULK1
[6] = target: Serine/threonine-protein kinase SIK1 (Homo sapiens) (UniProt P57059); assay: Inhibition of human recombinant SIK at 500 nM related to control ULK1
[7] = target: Death-associated protein kinase 1 (Homo sapiens) (UniProt P53355); assay: Inhibition of human recombinant DAPK1 at 15 nM in presence of ATP by radiometric assay relative to control
[8] = target: Fibroblast growth factor receptor 1 (Homo sapiens) (UniProt P11362); assay: Inhibition of human recombinant FGFR1 at 15 nM in presence of ATP by radiometric assay relative to control
Chain of Fibroblast growth factor receptor 1 (Homo sapiens) (P11362 22-822 limits assumed): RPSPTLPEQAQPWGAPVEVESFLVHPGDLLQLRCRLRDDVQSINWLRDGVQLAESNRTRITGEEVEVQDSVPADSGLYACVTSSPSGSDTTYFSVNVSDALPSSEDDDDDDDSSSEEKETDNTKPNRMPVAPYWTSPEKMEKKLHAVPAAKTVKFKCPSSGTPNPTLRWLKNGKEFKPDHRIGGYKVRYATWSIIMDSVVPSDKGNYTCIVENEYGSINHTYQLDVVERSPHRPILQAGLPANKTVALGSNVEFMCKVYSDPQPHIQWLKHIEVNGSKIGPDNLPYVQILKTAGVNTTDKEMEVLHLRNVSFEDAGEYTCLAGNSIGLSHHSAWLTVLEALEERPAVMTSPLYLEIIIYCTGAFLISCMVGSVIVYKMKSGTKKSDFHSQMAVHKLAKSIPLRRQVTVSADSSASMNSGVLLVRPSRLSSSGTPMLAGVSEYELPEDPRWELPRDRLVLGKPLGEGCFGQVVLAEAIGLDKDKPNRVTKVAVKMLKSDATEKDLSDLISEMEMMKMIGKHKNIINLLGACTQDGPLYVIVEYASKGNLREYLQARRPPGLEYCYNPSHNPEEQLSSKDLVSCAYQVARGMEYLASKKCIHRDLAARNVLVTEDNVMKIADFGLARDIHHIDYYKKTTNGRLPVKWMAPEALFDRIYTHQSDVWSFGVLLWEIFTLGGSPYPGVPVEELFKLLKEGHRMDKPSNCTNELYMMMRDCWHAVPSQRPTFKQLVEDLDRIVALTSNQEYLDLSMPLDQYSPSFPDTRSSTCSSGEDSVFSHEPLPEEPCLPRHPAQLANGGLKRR

[9] = target: Misshapen-like kinase 1 (Homo sapiens) (UniProt Q8N4C8); assay: Inhibition of human recombinant MINK at 15 nM in presence of ATP by radiometric assay relative to control
[10] = target: Serine/threonine-protein kinase N1 (Homo sapiens) (UniProt Q16512); assay: Inhibition of human recombinant PKN1 at 15 nM in presence of ATP by radiometric assay relative to control
[11] = target: Tau-tubulin kinase 1 (Homo sapiens) (UniProt Q5TCY1); assay: Inhibition of human recombinant TTBK1 at 15 nM in presence of ATP by radiometric assay relative to control
Chain of Tau-tubulin kinase 1 (Homo sapiens) (Q5TCY1 whole entry): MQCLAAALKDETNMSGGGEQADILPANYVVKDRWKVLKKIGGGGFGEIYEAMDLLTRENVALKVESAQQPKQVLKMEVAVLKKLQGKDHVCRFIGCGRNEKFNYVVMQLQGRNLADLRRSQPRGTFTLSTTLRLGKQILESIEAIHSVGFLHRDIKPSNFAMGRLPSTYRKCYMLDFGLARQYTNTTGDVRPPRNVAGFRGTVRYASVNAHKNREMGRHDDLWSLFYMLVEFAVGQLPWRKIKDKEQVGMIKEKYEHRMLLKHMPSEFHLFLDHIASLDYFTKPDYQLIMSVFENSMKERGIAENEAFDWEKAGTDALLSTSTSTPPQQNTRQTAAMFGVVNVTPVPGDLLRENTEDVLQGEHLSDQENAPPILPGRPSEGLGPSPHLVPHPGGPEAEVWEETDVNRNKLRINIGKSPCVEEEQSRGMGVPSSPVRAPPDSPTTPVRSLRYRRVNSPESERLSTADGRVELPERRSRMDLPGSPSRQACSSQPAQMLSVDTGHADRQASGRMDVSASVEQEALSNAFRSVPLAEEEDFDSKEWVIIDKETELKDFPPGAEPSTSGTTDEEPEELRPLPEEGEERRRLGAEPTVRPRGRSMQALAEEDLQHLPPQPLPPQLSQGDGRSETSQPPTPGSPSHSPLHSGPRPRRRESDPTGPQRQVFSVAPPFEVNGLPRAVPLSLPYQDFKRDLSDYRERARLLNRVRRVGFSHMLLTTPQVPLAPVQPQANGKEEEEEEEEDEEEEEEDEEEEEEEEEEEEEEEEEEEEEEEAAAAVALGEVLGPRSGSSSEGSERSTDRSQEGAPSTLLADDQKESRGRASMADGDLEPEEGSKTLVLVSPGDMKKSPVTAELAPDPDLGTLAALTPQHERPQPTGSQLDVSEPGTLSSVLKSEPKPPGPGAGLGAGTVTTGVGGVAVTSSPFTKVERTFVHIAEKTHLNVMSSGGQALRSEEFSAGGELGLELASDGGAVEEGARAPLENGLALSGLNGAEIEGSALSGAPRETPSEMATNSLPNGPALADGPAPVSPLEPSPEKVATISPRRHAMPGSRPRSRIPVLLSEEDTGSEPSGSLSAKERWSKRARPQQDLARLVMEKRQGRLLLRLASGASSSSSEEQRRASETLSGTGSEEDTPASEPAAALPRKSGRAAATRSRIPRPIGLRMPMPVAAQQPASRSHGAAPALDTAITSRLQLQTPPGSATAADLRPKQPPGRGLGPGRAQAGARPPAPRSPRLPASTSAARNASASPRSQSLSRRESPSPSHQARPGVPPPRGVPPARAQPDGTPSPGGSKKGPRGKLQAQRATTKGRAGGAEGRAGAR

[12] = target: Protein-tyrosine kinase 6 (Homo sapiens) (UniProt Q13882); assay: Inhibition of human recombinant BRK at 15 nM related to control ULK1
[13] = target: Mast/stem cell growth factor receptor Kit (Homo sapiens) (UniProt P10721); assay: Inhibition of human recombinant KIT at 15 nM related to control ULK1
Chain of Mast/stem cell growth factor receptor Kit (Homo sapiens) (P10721 whole entry): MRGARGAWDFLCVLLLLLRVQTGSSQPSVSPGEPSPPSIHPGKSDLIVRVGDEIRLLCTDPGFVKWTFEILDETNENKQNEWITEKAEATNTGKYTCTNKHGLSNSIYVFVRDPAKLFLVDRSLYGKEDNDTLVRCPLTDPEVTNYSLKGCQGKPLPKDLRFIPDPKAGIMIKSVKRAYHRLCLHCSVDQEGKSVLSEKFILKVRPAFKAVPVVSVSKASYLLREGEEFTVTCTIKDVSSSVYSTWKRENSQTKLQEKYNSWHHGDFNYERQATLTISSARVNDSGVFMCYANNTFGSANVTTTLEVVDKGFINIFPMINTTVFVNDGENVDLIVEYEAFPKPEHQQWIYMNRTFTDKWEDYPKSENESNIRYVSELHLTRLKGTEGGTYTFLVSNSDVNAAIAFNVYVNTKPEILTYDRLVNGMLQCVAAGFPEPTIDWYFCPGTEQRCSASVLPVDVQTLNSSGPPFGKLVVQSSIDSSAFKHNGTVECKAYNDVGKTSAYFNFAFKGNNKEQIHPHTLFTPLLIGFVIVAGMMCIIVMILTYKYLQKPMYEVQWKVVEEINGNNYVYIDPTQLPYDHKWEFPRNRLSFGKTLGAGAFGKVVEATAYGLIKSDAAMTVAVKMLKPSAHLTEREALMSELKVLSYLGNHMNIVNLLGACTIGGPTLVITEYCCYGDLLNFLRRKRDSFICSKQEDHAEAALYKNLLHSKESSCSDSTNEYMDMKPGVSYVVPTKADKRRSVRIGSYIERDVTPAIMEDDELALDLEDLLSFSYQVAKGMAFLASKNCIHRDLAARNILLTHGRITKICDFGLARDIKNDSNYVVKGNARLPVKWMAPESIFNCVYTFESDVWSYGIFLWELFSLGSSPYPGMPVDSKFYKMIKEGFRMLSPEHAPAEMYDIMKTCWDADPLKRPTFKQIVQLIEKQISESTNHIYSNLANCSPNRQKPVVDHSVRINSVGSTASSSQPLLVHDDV

[14] = target: T2, NUAK family SNF1-like kinase 1 (Homo sapiens) (UniProt O60285); assay: Inhibition of human recombinant NuaK1 at 15 nM related to control ULK1
T2 sequence (whole entry): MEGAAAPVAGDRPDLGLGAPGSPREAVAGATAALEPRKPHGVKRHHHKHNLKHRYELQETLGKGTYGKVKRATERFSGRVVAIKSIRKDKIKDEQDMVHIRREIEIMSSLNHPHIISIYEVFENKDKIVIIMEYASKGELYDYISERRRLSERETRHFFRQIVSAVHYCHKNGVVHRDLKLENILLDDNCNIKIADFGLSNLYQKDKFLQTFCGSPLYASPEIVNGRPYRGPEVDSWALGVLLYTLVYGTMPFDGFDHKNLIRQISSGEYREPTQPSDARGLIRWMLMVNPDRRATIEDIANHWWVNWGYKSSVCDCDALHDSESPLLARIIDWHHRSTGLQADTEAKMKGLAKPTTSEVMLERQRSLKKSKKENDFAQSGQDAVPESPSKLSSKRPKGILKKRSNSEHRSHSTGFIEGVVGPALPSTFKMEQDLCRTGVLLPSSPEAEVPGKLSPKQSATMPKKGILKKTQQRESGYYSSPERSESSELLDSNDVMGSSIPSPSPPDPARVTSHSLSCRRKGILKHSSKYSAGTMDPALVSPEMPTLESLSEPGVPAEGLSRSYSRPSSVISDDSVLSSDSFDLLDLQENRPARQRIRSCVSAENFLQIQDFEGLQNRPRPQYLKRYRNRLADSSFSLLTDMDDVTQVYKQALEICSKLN

[15] = target: NT-3 growth factor receptor (Homo sapiens) (UniProt Q16288); assay: Inhibition of human recombinant TRKC at 15 nM related to control ULK1
[16] = target: Tyrosine-protein kinase FRK (Homo sapiens) (UniProt P42685); assay: Inhibition of human recombinant FRK at 40 nM related to control ULK1
[17] = target: Tyrosine-protein kinase Lyn (Homo sapiens) (UniProt P07948); assay: Inhibition of human recombinant LYN at 40 nM related to control ULK1
Chain of Tyrosine-protein kinase Lyn (Homo sapiens) (P07948 2-512 limits assumed): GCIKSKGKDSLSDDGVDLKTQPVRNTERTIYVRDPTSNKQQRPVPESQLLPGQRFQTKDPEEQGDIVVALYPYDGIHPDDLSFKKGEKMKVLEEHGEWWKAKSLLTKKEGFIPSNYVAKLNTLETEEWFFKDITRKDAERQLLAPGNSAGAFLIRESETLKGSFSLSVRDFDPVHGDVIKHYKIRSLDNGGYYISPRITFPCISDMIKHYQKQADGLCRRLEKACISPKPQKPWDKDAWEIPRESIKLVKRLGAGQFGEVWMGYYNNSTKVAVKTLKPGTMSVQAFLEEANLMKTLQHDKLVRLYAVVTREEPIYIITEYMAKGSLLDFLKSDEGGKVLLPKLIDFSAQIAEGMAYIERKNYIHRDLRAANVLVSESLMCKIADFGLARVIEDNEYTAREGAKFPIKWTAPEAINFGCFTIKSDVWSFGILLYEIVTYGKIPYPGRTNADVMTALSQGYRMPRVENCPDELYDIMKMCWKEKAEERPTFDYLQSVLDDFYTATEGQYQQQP

[18] = target: Ribosomal protein S6 kinase alpha-6 (Homo sapiens) (UniProt Q9UK32); assay: Inhibition of human recombinant RSK4 at 40 nM related to control ULK1
Chain of Ribosomal protein S6 kinase alpha-6 (Homo sapiens) (Q9UK32 whole entry): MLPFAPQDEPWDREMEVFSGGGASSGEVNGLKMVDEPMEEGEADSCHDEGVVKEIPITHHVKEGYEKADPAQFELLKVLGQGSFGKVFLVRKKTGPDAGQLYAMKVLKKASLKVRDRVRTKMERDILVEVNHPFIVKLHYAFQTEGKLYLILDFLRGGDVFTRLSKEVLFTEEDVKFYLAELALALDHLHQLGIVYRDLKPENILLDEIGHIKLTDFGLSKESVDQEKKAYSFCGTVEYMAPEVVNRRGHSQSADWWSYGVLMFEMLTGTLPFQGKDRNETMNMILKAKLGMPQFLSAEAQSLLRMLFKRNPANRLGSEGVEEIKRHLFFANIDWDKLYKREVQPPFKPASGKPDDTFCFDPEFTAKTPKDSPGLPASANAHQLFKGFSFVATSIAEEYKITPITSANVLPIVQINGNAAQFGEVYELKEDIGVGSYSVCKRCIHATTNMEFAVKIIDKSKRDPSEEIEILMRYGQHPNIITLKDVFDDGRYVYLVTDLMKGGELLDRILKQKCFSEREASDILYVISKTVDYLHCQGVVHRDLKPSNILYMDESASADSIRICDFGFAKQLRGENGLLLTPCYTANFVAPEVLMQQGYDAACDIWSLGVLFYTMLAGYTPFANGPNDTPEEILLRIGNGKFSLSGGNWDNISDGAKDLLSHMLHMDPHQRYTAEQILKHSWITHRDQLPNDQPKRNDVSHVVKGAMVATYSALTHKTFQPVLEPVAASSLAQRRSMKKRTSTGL

Chain of Tyrosine-protein kinase FRK (Homo sapiens) (P42685 whole entry): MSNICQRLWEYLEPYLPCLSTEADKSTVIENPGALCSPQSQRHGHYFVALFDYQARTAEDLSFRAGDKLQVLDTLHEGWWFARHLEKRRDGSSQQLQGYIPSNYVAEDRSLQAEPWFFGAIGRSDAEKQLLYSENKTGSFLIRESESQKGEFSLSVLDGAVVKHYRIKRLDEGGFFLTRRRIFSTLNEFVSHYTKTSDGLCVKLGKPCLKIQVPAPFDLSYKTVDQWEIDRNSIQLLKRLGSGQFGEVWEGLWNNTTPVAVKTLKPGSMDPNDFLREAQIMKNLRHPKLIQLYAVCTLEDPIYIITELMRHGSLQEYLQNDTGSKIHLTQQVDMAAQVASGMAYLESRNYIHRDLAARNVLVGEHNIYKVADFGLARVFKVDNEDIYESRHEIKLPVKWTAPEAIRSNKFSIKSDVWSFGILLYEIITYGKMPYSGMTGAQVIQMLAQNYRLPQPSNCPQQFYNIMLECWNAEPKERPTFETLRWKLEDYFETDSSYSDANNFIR

inhibition [1]: 28% | inhibition [2]: 9% | inhibition [3]: 9% | inhibition [4]: 78% | fold change (FC) [5]: 0.07 | fold change (FC) [6]: 0.27
Compound: CNC(=O)c1ccccc1Oc1nc(Nc2cc(OC)c(OC)c(OC)c2)ncc1Br

inhibition [8]: 0% | inhibition [9]: 4% | inhibition [10]: 0% | inhibition [11]: 0% | fold change (FC) [12]: 0.09 | fold change (FC) [13]: 0 | fold change (FC) [14]: 0.31 | fold change (FC) [15]: 0
Compound: CC(C)[C@H](NC(=O)c1cc(-c2cnn3cc(-c4ccc(OCCN5CCCCC5)cc4)cnc23)cs1)C(F)(F)F
inhibition [7]: 4%

fold change (FC) [16]: 0 | fold change (FC) [17]: 0.25 | fold change (FC) [18]: 0
Compound: O=C(N[C@@H](C1CC1)C(F)(F)F)c1cc(-c2cnn3cc(-c4ccc(F)cc4)cnc23)cs1

From ChEMBL document CHEMBL5653631, “A Potent and Selective ULK1 Inhibitor Suppresses Autophagy and Sensitizes Cancer Cells to Nutrient Stress” (iScience, 2018)
